From patent US9795609B2, “Pharmaceutical composition of 1-adamantylethyloxy-3-morpholino-2-propanol or pharmaceutically acceptable salts thereof for the treatment of cardiovascular disease” (priority 2012, dated 2017)

How the values were obtained:
Type in all cases: in vivo
[1] = tested on: rats with acute adrenal cardiomyopathy; test: Acute adrenal cardiomyopathy simulation in rats, preventive single administration; conditions: single doses of 15, 30, 50 and 100 mg/kg one hour before simulation
Description: This allows to use it for treatment of various forms of ischemic heart disease, including unstable angina pectoris, stable rest and exertional angina pectoris, angina pectoris of intact vessels, acute coronary syndrome (including early postinfarction angina pectoris), myocardial infarction (large-focus and small-focus, repeated and recurrent) post resuscitation disease (state after emergency procedures), and cardiomyopathies of various genesis (alcoholic, infectious-toxic, and metabolic).

[2] = tested on: cats; test: Coronary blood flow and haemodynamics in cats after intravenous administration; conditions: 3, 5, and 10 mg/kg intravenously
Description: The ability of the pharmaceutical composition for parenteral use comprising the active substance 1-adamantylethyloxy-3-morpholino-2-propanol or pharmaceutically acceptable salts thereof to improve myocardial perfusion indicates to appropriateness of its use in acute coronary syndrome.

[3] = tested on: rats with small-focus myocardial infarction; test: Experimental therapy of rats with small-focus myocardial infarction
Description: The ability of the pharmaceutical composition for parenteral use comprising the active substance 1-adamantylethyloxy-3-morpholino-2-propanol or pharmaceutically acceptable salts thereof allows its use for treatment of cardiomyopathies of various geneses (alcoholic, infectious, toxic, and metabolic).
This allows to use it for treatment of various forms of coronary artery disease, including unstable angina pectoris, stable rest and exertional angina pectoris, angina pectoris of intact vessels, acute coronary syndrome (including early postinfarction angina pectoris), myocardial infarction (large-focus and small-focus, repeated and recurrent) post resuscitation disease (state after emergency procedures), treatment and prevention of ischemic myocardial postreperfusion injuries after thrombolysis, stenting, balloon angioplasty, coronary vessels atheroctomy, postinfarction myocardiosclerosis, cardiomyopathies of various genesis (alcoholic, infectious-toxic, and metabolic), heart rhythm disorders, diabetic angiopathies and complications thereof.

[4] = 10 mg/kg once a day for 96 hours of ischemia

Structure (SMILES): OC(COCCC12CC3CC(CC(C3)C1)C2)CN1CCOCC1 (stereo not shown) [1-adamantylethyloxy-3-morpholino-2-propanol]
- mortality [1]: promoted the reducing mortality in rats
- coronary blood flow [2]: stimulates coronary blood flow
- hypotension [2]: not accompanied by hypotension
- peripheral vasodilatation, venous inflow and cardiac output [2]: not associated with peripheral vasodilatation, decreased of venous inflow and cardiac output
- bcl-2 antiapoptotic protein expression ([3]; 10 mg/kg once a day for 96 hours): promoted the increasing of bcl-2 antiapoptotic protein expression
- RNA content and transcriptional activity of cardiomyocytes [3, 4]: increasing of RNA content and transcriptional activity
- c-fos protein content in cardiomyocytes [3, 4]: promoted the increasing of c-fos protein content in cardiomyocytes
- cardiomyocytes nuclei density [3, 4]: retention of cardiomyocytes nuclei density
- percentage of necrotic cardiomyocytes [3, 4]: the percentage of necrotic cardiomyocytes is reduced
- manifestations of endothelial dysfunction and nitrosating stress ([3]; 3, 10, 20, 50 and 100 mg/kg once a day for 96 hours of ischemia): promoted to reduce manifestations of endothelial dysfunction and nitrosating stress
